Measurements as given in patent US20240309004A1, “SELECTIVE CYCLIN-DEPENDENT KINASE INHIBITORS AND METHODS OF THERAPEUTIC USE THEREOF” (ViroKyne Therapeutics, LLC, priority 2021, published 2024).
Where two headings read alike, the source gives them in different places.

What was measured:
MEF cells = experiment: Cytotoxicity concurrent with Murine CMV secondary assay; type: cell-based, mouse
Protocol: (§1) Compounds that were positive in the CPE assay were confirmed in a similar assay in 96-well plates according to established laboratory protocols with the compounds added 1 h post infection […]. Additionally, 12 1:3 dilutions were done instead of 6 1:5 dilutions for added accuracy. Genome copy number was determined by qPCR using primers 5′-[…]-3′, 5′ […]-3′, and probe 5′-[…]-3′.

[1] = Cytotoxicity concurrent with HCMV AD169 primary assay; type: cell-based, human; conditions: human
Murine CMV strain Smith [2] = experiment: Murine CMV secondary assay, strain Smith, MEF cells; type: cell-based, Mouse Cytomegalovirus
Protocol: as §1

HCMV strain AD169 [3] = experiment: HCMV primary assay (CPE), strain AD169, HFF cells; type: cell-based, Human Cytomegalovirus
Protocol: The antiviral activity of the compound against HCMV in the described Primary assay was measured by treating primary Human foreskin fibroblast (HFF) cells infected with HCMV with a range of compound concentrations—description of methods for this assay can be found in section 1.3.2.1. […] . Additional tested assay parameters in this Primary assay can be found in Table 3.2.1 and include EC90, S150, and S190 values—descriptions of those data points can be found in section 3.2.1.

HCMV strain AD169 [4] = experiment: HCMV secondary assay (yield reduction), strain AD169, HFF cells; type: cell-based, Human Cytomegalovirus; conditions: Human betaherpesvirus 5, virus strain AD169, HFF cells
Protocol: (§2) Monolayers of HFF cells were prepared in 96-well plates and incubated at 37° C. for 1 d to allow the cells to reach confluency. Media was then aspirated from the wells and cells infected at a high MOI. At 1 h following infection, the inocula were removed and the monolayers rinsed with fresh media. […] Drug dilutions were added to the wells and the plates were incubated for various times, depending on the virus used and represents a single replication cycle for the virus. A duplicate set of dilutions were also performed but remained uninfected to serve as a cytotoxicity control and received equal compound exposure. Supernatants from each of the infected wells were subsequently titered using CTG in a TCID50 assay to quantify the progeny virus. For HCMV only, viral yield in the supernatants from the infected cells were titered using qPCR with HCMV primers [NT], and probe [NT].

[5] = Cytotoxicity concurrent with HCMV secondary assay; type: cell-based; conditions: human
Protocol: as §2

Murine CMV strain Smith [6] = experiment: Murine CMV primary assay, strain Smith, MEF cells; type: cell-based, Mouse Cytomegalovirus
VZV strain Ellen = experiment: VZV primary assay, strain Ellen, HFF cells; type: cell-based, Varicella Zoster Virus
Protocol: (§3) Assays were performed in monolayers as described. […] Toxicity was measured using CTG as above. […] Toxicity was measured using CTG as above.
(§4) Monolayers of HFF cells were prepared in six-well plates and incubated at 37° C. for 2 d to allow the cells to reach confluency. Media was then aspirated from the wells and 0.2 mL of virus-containing solution was added to each of three wells to yield 20-30 plaques in each well. The virus was allowed to adsorb to the cells for 1 h and the plates were agitated every 15 minutes. Compounds were diluted in assay media consisting of MEM with Earl's salts supplemented with 2% FBS, glutamine, penicillin, and gentamycin. Diluted drug was added to duplicate wells and the plates were incubated for various times, depending on the virus used. For HSV-1 and -2, the monolayers were then stained with 1% crystal violet in 20% methanol and the unbound dye removed by washing with dH20. For all other assays, the cell monolayer was stained with 1% Neutral Red solution for 4-6 h then the stain was aspirated and the cells were washed with PBS.

[7] = Cytotoxicity concurrent with VZV Ellen primary assay; type: cell-based; conditions: human
Protocol: as §3

[8] = Cytotoxicity concurrent with HSV2 primary assay; type: cell-based; conditions: human
Protocol: as §3

[9] = Cytotoxicity concurrent with HSV1 E-377 primary assay; type: cell-based; conditions: human
Protocol: as §3

[10] = Cytotoxicity concurrent with EBV primary assay; conditions: human
HSV1 strain E-377 = experiment: HSV1 primary assay, strain E-377, HFF cells; type: cell-based, Herpes Simplex Virus 1
Protocol: as §3, §4

[11] = Cytotoxicity concurrent with Adenovirus secondary assay; type: cell-based; conditions: human, Adeno secondary assay, HFF cells
Protocol: as §2

[12] = system: Adenovirus Adenoid75 strain; experiment: Adenovirus secondary assay (yield reduction), Adenoid75 strain, HFF cells; type: cell-based; conditions: unidentified adenovirus
Protocol: as §2

[13] = system: Adenovirus Adenoid75 strain; experiment: Adenovirus primary assay, Adenoid75 strain, HFF cells; type: cell-based; conditions: unidentified adenovirus
[14] = system: VZV strain 15-6-001 resistant isolate; experiment: microbe, parasite or virus in culture; type: cell-based, Varicella Zoster Virus; conditions: Human alphaherpesvirus 3, HFF
Protocol: as §3, §4

[15] = Cytotoxicity concurrent with Adenovirus primary assay; type: cell-based; conditions: human
[16] = system: Epstein-Barr virus Akata strain; experiment: Epstein-Barr primary assay, Akata strain, Akata cells; type: cell-based
[17] = Cytotoxicity concurrent with VZV 15-6-001 primary assay; type: cell-based; conditions: human, HFF cell line
Protocol: as §3

HSV2 strain G = experiment: HSV2 primary assay, strain G, HFF cells; type: cell-based, herpes simplex virus 2
Protocol: as §3, §4

[18] = Human betaherpesvirus 5, HCMV primary assay, virus strain AD169, HFF cells, read-out: EC50
[19] = Human betaherpesvirus 5, HCMV primary assay, virus strain AD169, HFF cells, read-out: EC90
[20] = Human betaherpesvirus 5, AD169, HFF
[21] = human gammaherpesvirus 4, Akata

## Nc1nc(O)c2ncn(COC(CO)CO)c2n1 [Ganciclovir, ganciclovir, reference compound]
MEF cells
  CC50: 84.8 μ.M
[1]; CC50
  CC50: 150 µM
Murine CMV strain Smith [2]
  EC50: 7.4 µM
  EC90: 26 µM
HCMV strain AD169 [3]; [18]
  EC50: 1.78 µM
HCMV strain AD169 [3]; [19]
  EC90: 5.67 µM
HCMV strain AD169 [4]
  EC90: 3.88 µM
[5]
  CC50: 20 µM
Murine CMV strain Smith [6]
  EC50: 5.48 µM
  EC90: 24.9 µM

## OCC1CCC(Nc2cc3c4ccc(F)cc4nn3cn2)CC1 (stereo not shown) [VKT-029]
VZV strain Ellen; Human alphaherpesvirus 3, HFF
  EC50: 4.02 µM
  EC90: 10 µM
[7]; VZV Ellen primary assay, cell line HFF, read-out: CC50
  CC50: 45.1 µM
[8]; HSV2 primary assay, HFF cells, read-out: CC50
  CC50: 50 µM
[9]; HSV1 E-377 primary assay, HFF cells, read-out: CC50
  CC50: 50 µM
[1]; HCMV primary assay, HFF cells, read-out: CC50
  CC50: 50 µM
[10]
  CC50 at 72 h: 50 µM
HSV1 strain E-377; Human alphaherpesvirus 1, HFF
  EC50: 50 µM
  EC90: 50 µM
[11]
  CC50: 100 µM
[12]; HFF
  EC90: 3.91 µM
[13]; HFF
  EC50: 5.12 µM
[14]
  EC50: 10 µM
  EC90: 10 µM
HCMV strain AD169 [3]; [20]
  EC50: 50 µM
  EC90: 50 µM
[15]; Adenovirus primary assay, HFF cells, read-out: CC50
  CC50: 50 µM
[16]; [21]
  EC50: 4.79 µM
  EC90: 12.1 µM
[17]
  CC50: 47.2 µM
HSV2 strain G; Human alphaherpesvirus 2, HFF
  EC50: 50 µM
  EC90: 50 µM

## O=S1(=O)CCC(Nc2cc3c4ccc(F)cc4nn3cn2)CC1 [VKT-018]
VZV strain Ellen; Human alphaherpesvirus 3, VZV primary assay, strain Ellen, cell line HFF, read-out: EC50
  EC50: 50 µM
VZV strain Ellen; Human alphaherpesvirus 3, VZV primary assay, strain Ellen, cell line HFF, read-out: EC90
  EC90: 50 µM
[7]
  CC50: 50 µM
[8]
  CC50: 50 µM
[9]
  CC50: 50 µM
[1]; CC50
  CC50: 50 µM
[10]; Akata cells without virus induction
  CC50 at 72 h: 50 µM
HSV1 strain E-377; Human alphaherpesvirus 1, HSV1 primary assay, strain E-377, HFF cells, read-out: EC50
  EC50: 50 µM
HSV1 strain E-377; Human alphaherpesvirus 1, HSV1 primary assay, strain E-377, HFF cells, read-out: EC90
  EC90: 50 µM
[11]; uninfected HFF cell monolayers
  CC50: 97.1 µM
[12]; Adeno secondary assay, strain Adenoid75, HFF cells, read-out: EC90
  EC90: 16.4 µM
[13]; Adenovirus primary assay, HFF cells, Adenoid75 strain, read-out: EC50
  EC50: 3.69 µM
[13]; Adenovirus primary assay, HFF cells, Adenoid75 strain, read-out: EC90
  EC90: 50 µM
HCMV strain AD169 [3]; [18]
  EC50: 50 µM
HCMV strain AD169 [3]; [19]
  EC90: 50 µM
[15]
  CC50: 50 µM
[16]; human gammaherpesvirus 4, Epstein-Barr primary assay, Akata strain, Akata cells, read-out: EC50
  EC50: 45.7 µM
[16]; human gammaherpesvirus 4, Epstein-Barr primary assay, Akata strain, Akata cells, read-out: EC90
  EC90: 50 µM
HSV2 strain G; Human alphaherpesvirus 2, HSV2 primary assay, strain G, HFF cells, read-out: EC50
  EC50: 50 µM
HSV2 strain G; Human alphaherpesvirus 2, HSV2 primary assay, strain G, HFF cells, read-out: EC90
  EC90: 50 µM
